pIC50: −log10 of the molar value.
System: KRAS PDC multicell spheroid viability
Experiment: Anticancer human tumor 521955-158-R6-J3-PDC patient-derived pancreatic carcinoma cell line growth inhibition [KRAS2]
Details: for pIC50: curve of first compound; for viability, T/C: stronger effect = lower value
Method in brief: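 KRAS-mutant tumor cells were grown as spheroids with HUVEC endothelial cells and human MSCs as stroma. Targeted agents were tested alone and with KRAS pathway inhibitors. Doses started at or near clinical Cmax, or 10 microM, descending half-log.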

[1] = second compound 0.1 µM, first compound 0.0316 µM
[2] = second compound 0.1 µM, first compound 0.1 µM
[3] = second compound 0.1 µM, first compound 0.316 µM
[4] = second compound 0.1 µM, first compound 1 µM
[5] = second compound 0.1 µM, first compound 3.16 µM
[6] = second compound 0.316 µM, first compound 0.0316 µM
[7] = second compound 0.316 µM, first compound 0.1 µM
[8] = second compound 0.316 µM, first compound 0.316 µM
[9] = second compound 0.316 µM, first compound 1 µM
[10] = second compound 0.316 µM, first compound 3.16 µM
[11] = second compound 1 µM, first compound 0.0316 µM
[12] = second compound 1 µM, first compound 0.1 µM
[13] = second compound 1 µM, first compound 0.316 µM
[14] = second compound 1 µM, first compound 1 µM
[15] = second compound 1 µM, first compound 3.16 µM
[16] = second compound 3.16 µM, first compound 0.0316 µM
[17] = second compound 3.16 µM, first compound 0.1 µM
[18] = second compound 3.16 µM, first compound 0.316 µM
[19] = second compound 3.16 µM, first compound 1 µM
[20] = second compound 3.16 µM, first compound 3.16 µM
[21] = second compound 10 µM, first compound 0.0316 µM
[22] = second compound 10 µM, first compound 0.1 µM
[23] = second compound 10 µM, first compound 0.316 µM
[24] = second compound 10 µM, first compound 1 µM
[25] = second compound 0.1 µM, first compound 0.01 µM
[26] = second compound 0.316 µM, first compound 0.01 µM
[27] = second compound 1 µM, first compound 0.01 µM
[28] = second compound 3.16 µM, first compound 0.01 µM
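Further: drug exposure lasted seven days.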
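Wherever viability, T/C is given: 100% = DMSO vehicle wells and lower means fewer viable cells.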

Structure (SMILES)	pIC50 (second compound 0.1 µM)	pIC50 (second compound 0.316 µM)	pIC50 (second compound 1 µM)	pIC50 (second compound 3.16 µM)	viability, T/C [1] [%]	viability, T/C [2] [%]	viability, T/C [3] [%]	viability, T/C [4] [%]	viability, T/C [6] [%]	viability, T/C [7] [%]	viability, T/C [8] [%]	viability, T/C [9] [%]	viability, T/C [11] [%]	viability, T/C [12] [%]	viability, T/C [13] [%]	viability, T/C [14] [%]	viability, T/C [16] [%]	viability, T/C [17] [%]	viability, T/C [18] [%]	viability, T/C [19] [%]	further results
CC(C)NCC(C(=O)N1CCN(c2ncnc3c2C(C)CC3O)CC1)c1ccc(Cl)cc1 (stereo not given) + COc1cc2nc(C)nc(NC(C)c3cc(N)cc(C(F)(F)F)c3)c2cc1OC1CCOC1	< 5.00	< 5.00	< 5.00	< 5.00	96.1	90.2	76.1	84.9	83.8	79	75.7	70.3	82.3	83.8	73.5	69.2	63.3	62.1	67.2	63.7	pIC50 (second compound 10 µM): > 7.50; viability, T/C [5]: 72.8%; viability, T/C (second compound 0.1 µM, first compound 10 µM): 71.8%; viability, T/C [10]: 77.7%; viability, T/C (second compound 0.316 µM, first compound 10 µM): 64.6%; viability, T/C [15]: 70.5%; viability, T/C (second compound 1 µM, first compound 10 µM): 59.6%; viability, T/C [20]: 72.1%; viability, T/C (second compound 3.16 µM, first compound 10 µM): 67.7%; viability, T/C [21]: 44.1%; viability, T/C [22]: 40.2%; viability, T/C [23]: 46.1%; viability, T/C [24]: 28.4%; viability, T/C (second compound 10 µM, first compound 3.16 µM): 27.1%; viability, T/C (second compound 10 µM, first compound 10 µM): 16.7%
CCN1CCN(Cc2ccc(Nc3ncc(F)c(-c4cc(F)c5nc(C)n(C(C)C)c5c4)n3)nc2)CC1 + C=CC(=O)N1CCN(c2nc(=O)n(-c3c(C)ccnc3C(C)C)c3nc(-c4c(O)cccc4F)c(F)cc23)C(C)C1	< 6.00	< 6.00	< 6.00	< 6.00	86.1	74.2	83.6	97.6	78.7	86	88.2	88.5	111	94.3	85.6	125	101	90.3	109	114	pIC50 (second compound 10 µM): < 6.00; viability, T/C (second compound 0.1 µM, first compound 0.00316 µM): 102%; viability, T/C [25]: 88.8%; viability, T/C (second compound 0.316 µM, first compound 0.00316 µM): 95.8%; viability, T/C [26]: 90.6%; viability, T/C (second compound 1 µM, first compound 0.00316 µM): 111%; viability, T/C [27]: 91.9%; viability, T/C (second compound 3.16 µM, first compound 0.00316 µM): 87.6%; viability, T/C [28]: 89.4%; viability, T/C (second compound 10 µM, first compound 0.00316 µM): 63.2%; viability, T/C (second compound 10 µM, first compound 0.01 µM): 73.2%; viability, T/C [21]: 75.3%; viability, T/C [22]: 70.4%; viability, T/C [23]: 85.5%; viability, T/C [24]: 114%
CC(=O)OC12COC1CC(O)C1(C)C(=O)C(O)C3=C(C)C(OC(=O)C(O)C(NC(=O)OC(C)(C)C)c4ccccc4)CC(O)(C(OC(=O)c4ccccc4)C21)C3(C)C (stereo not given) + C=CC(=O)N1CCN(c2nc(OCC3CCCN3C)nc3c2CCN(c2cccc4cccc(C)c24)C3)CC1CC#N	< 5.50	< 5.50	< 5.50	< 5.50	78.7	70.4	81.7	95	52.9	68.8	75.1	81.3	82.2	82.7	83.3	113	81.4	76.8	74.3	102	pIC50 (second compound 0.0316 µM): < 5.50; viability, T/C (second compound 0.0316 µM, first compound 0.01 µM): 83.9%; viability, T/C (second compound 0.0316 µM, first compound 0.0316 µM): 72.8%; viability, T/C (second compound 0.0316 µM, first compound 0.1 µM): 71.7%; viability, T/C (second compound 0.0316 µM, first compound 0.316 µM): 80.5%; viability, T/C (second compound 0.0316 µM, first compound 1 µM): 93%; viability, T/C (second compound 0.0316 µM, first compound 3.16 µM): 110%; viability, T/C [25]: 79.6%; viability, T/C [5]: 130%; viability, T/C [26]: 69.2%; viability, T/C [10]: 87.9%; viability, T/C [27]: 71%; viability, T/C [15]: 112%; viability, T/C [28]: 83.2%; viability, T/C [20]: 107%

Source: PubChem BioAssay AID1963864 (Molecular Pharmacology Branch, DTP, NCI, 2024)
